This is an account of results in patent US12697343B2, “Intravenous istaroxime for the treatment of acute heart failure” (Seismic Pharmaceuticals Operations LLC, priority 2021, dated 2026).

The test system of data set [1] is patients hospitalized for acute heart failure (AHF). Nature of the data set: NT-proBNP serial measurements (Elecsys proBNP II). The class given is in vivo, human. The protocol: (§1) The primary efficacy endpoint was the change from baseline to 24 h after the start of the infusion in the E/e ratio assessed by tissue Doppler echocardiography. Secondary endpoints included the change from baseline to 24 h of other echocardiography parameters: LVEF, left ventricular end-systolic and end-diastolic volumes, stroke volume index, E, A, E/A ratio, and S′: changes in dyspnoea by visual analogue scale (VAS) and in NT-proBNP from baseline to 24 h: proportion of patients with hospital readmissions or emergency visits for cardiovascular reasons by day 30; proportion of patients with episodes of in-hospital worsening heart failure to day 4, and length of stay. In-hospital worsening heart failure was defined by the need to increase the dose or reinitiate intravenous therapy with diuretics and/or other inotropic agents to day 4. Safety endpoints were assessed throughout the study and included: incidence of adverse events (AEs): change in vital signs and in 12-lead electrocardiographic (ECG) parameters: incidence of clinically or haemodynamically significant episodes of supraventricular or ventricular arrhythmias detected by continuous ECG monitoring: standard laboratory parameters: renal function: cardiac troponin T (cTnT): incidence of cTnT elevations, and mortality at day 30. Elevations in cTnT were considered significant if they were >50% or >20% from baseline values, for patients with cTnT below or above the 99% upper reference limit at baseline, respectively.
The study design included a 24 h screening period, a 24 h study drug infusion phase (day 1), a post-treatment phase (days 2-4), and a follow-up visit at day 30 (FIG. 5). Patients could be enrolled at any time after admission. The use of oral medications was permitted during the study with the exception of digoxin. Intravenous diuretics were permitted during the treatment period at stable doses, unless changes were required due to clinically relevant variations of the patient's condition. If treatment with an inotrope was clinically necessary during the infusion period, the investigational product was discontinued. Echocardiography was performed according to international standards at screening, baseline (just before starting study drug infusion), 6, 24 h (just before infusion end), and 48 h after infusion start. Echocardiographic measurements at baseline, 6, 24, and 48 h were evaluated in a blinded fashion by a CoreLab located at the University and Civil Hospital of Brescia, Italy. E/e′ ratio was calculated as the ratio between the peak early diastolic mitral flow velocity (E wave) and the mean of the annular lateral (e′ lateral) and septal (e′ septal) velocities, according to standard guidelines.^20 Intraobserver and interobserver variability in E/e′ measurement was tested on the 15% of the recordings and is shown in FIG. 6. Self-reported dyspnoea was assessed using a 100 mm VAS, with zero representing the worst level of dyspnoea and […] the best breathing condition. Twenty-four hour ECG monitoring was performed using a three-lead device (Mortara industries, Milwaukee, WI, USA) during the day of screening, the infusion period, and the day after (the latter was optional). Analysis was conducted by a blinded CoreLab (ICS Maugeri, Italy). Serial measurements of NT-proBNP throughout the study were analyzed by a central laboratory (Elecsys® proBNP II, Roche®, Basel, Switzerland). Samples for cTnT were taken at baseline, 3, 6, 12, 24, 48, and 72 h and on day 30, and were analyzed by a core laboratory (Elecsys® high-sensitivity assay, Roche®, Basel, Switzerland). AEs were monitored throughout the duration of the study.
The study was designed as a mechanistic and safety study to assess the effects of a 24 h istaroxime infusion in patients hospitalized for AHF. […]

Data set [2] concerns AHF patients with systolic blood pressure (SBP) of 90-150 mmHg. Particulars: 0.5, 1.0, and 1.5 μg/kg/min for 6 h; cited from earlier work.
Data set [3] concerns patients hospitalized for acute heart failure (AHF). The arrangement: species or system human. Particulars: in vivo. As for the experimental part: as §1, with “In-hospital worsening heart failure was defined by the need to increase the dose or reinitiate intravenous therapy with diuretics and/or other inotropic agents to day 4.” left out, “Elevations in cTnT were considered significant if they were >50% or >20% from baseline values, for patients with cTnT below or above the 99% upper reference limit at baseline, respectively.” left out
The study design included a 24 h screening period, a 24 h study drug infusion phase (day 1), a post-treatment phase (days 2-4), and a follow-up visit at day 30 (FIG. 5). […] AEs were monitored throughout the duration of the study. […]

Data set [4] has as its system dogs with chronic ischemic heart failure. Conditions: cited from earlier work.
Data set [5] deals with patients hospitalized for acute heart failure (AHF). Description: Clinical secondary endpoints: in-hospital worsening heart failure to day 4, readmissions/ED visits to day 30, length of stay. Type of data set: in vivo, human. The protocol:
as §1
The study was designed as a mechanistic and safety study to assess the effects of a 24 h istaroxime infusion in patients hospitalized for AHF. Based on the changes observed in the HORIZON-HF trial, we assumed that a sample size of at least 20 patients in the placebo group in each cohort with 2:1 randomization to istaroxime would provide sufficient power to assess the effect of istaroxime on the main haemodynamic parameters. Analyses were conducted using a pre-specified modified intention-to-treat (mITT) protocol, including all randomized patients in whom study drug infusion had been initiated and with at least […] available evaluation of efficacy after the baseline. Biomarker and eGFR values were analyzed using medians and inner/outer quartiles, and active treatment was compared to placebo using the Wilcoxon rank-sum test. Dyspnoea scores by VAS were analyzed using mixed model regression with treatment, center, time point, gender, baseline cTnT, presence of atrial fibrillation, treatment by time point interaction, baseline value, and baseline value by time point interaction in the model. Echocardiographic parameters were compared between treatment groups using linear regression with treatment in the model. Categorical variables were summarized as frequency and percent and compared between treatment groups using the Cochran-Mantel-Haenszel test, controlling for study site. AEs were recorded for all enrolled patients and were summarized as AEs, serious AEs (SAEs), AEs leading to discontinuation, and SAEs leading to death. All analyses were conducted using the SAS® System for Windows™, versions 9.1.3 and 9.4.

Where a name gives a salt, the structure may show the parent alone.

Turning to `C[C@]12CCC(=NOCCN)C[C@@H]1C(=O)C[C@@H]1[C@@H]2CC[C@]2(C)C(=O)CC[C@@H]12` [Istaroxime, (E,Z)-3-((2-aminoethoxy)imino)androstane-6,17-dione hydrochloride], the “NT-proBNP, median change from baseline” value in data set [1] (0.5 μg/Kg/min, 24 hours) is 120 pg/mL; in data set [1] (0.5 μg/Kg/min, 48 hours), -431 pg/mL; in data set [1] (0.5 μg/Kg/min, 72 hours) it was -802 pg/mL; in data set [1] (1.0 μg/Kg/min, 24 hours) it was -214 pg/mL; in data set [1] (1.0 μg/Kg/min, 48 hours), -563 pg/mL; in data set [1] (1.0 μg/Kg/min, 72 hours), -528 pg/mL. For the same compound, the cardiac index result in data set [2] is “increased only at the highest dose”. In data set [2], the “lusitropic effect assessed by increased mitral deceleration time” value is “occurred only at the highest dose”. Also, the “cardiac troponin absolute values” in data set [3] is given as “No significant changes”. For the same compound, in data set [4] (compared to dobutamine), the “myocardial relaxation (e′ diastolic velocity, tissue Doppler)” value is reported as “improved myocardial relaxation”. Moreover, the peak heart rate entry in data set [4] (compared with dobutamine) is on record as “significantly lower”. Besides, the “Length of stay, median” value in data set [5] (0.5 μg/Kg/min) and in data set [5] (1.0 μg/Kg/min) was 7.0 days in each case. Moreover, the “Hospital readmission/ED visits to Day 30, count of patients” value in data set [5] (0.5 μg/Kg/min (n = 41)) and in data set [5] (1.0 μg/Kg/min (n = 40)) was 4 throughout. The “Hospital readmission/ED visits to Day 30, percent of patients” value in data set [5] (0.5 μg/Kg/min (n = 41)) is “(9.8%)”; in data set [5] (1.0 μg/Kg/min (n = 40)), “(10%)”. The results for the “Worsening heart failure to day 4, count of patients” value in data set [5] (0.5 μg/Kg/min (n = 41)) and in data set [5] (1.0 μg/Kg/min (n = 40)) were 1 and 3, respectively. Moreover, the “Worsening heart failure to day 4, percent of patients” value in data set [5] (0.5 μg/Kg/min (n = 41)) is on record as “(2.4%)”; in data set [5] (1.0 μg/Kg/min (n = 40)), “(7.5%)”.
